This is an account of results in patent US20230416248A1, “COMPOUNDS AND USES THEREOF” (Foghorn Therapeutics Inc., priority 2020, published 2023).

A word on the IC50: it is the concentration that inhibits the measured activity by half.

Experiment [1] concerns the target T1, BRM (Homo sapiens, UniProt P51531).
T1 construct: made in house; host or cells: High Five insect cells
As to the kind of experiment: ATPase catalytic activity of BRM, ADP-Glo in vitro biochemical assay. Particulars: for IC50: 30 nM BRM, 400 μM ATP; for Ratio* (BRG1 IC50 (μM) divided by BRM IC50 (μM)): selectivity ratio BRG1 IC50 / BRM IC50. As to the method:
(§1) The ATPase catalytic activity of BRM or BRG-1 was measured by an in vitro biochemical assay using ADP-Glo™ (Promega, V9102). The ADP-Glo™ kinase assay is performed in two steps once the reaction is complete. The first step is to deplete any unconsumed ATP in the reaction. The second step is to convert the reaction product ADP to ATP, which will be utilized by the luciferase to generate luminesce and be detected by a luminescence reader, such as Envision.
The assay reaction mixture ([…]) contains 30 nM of BRM or BRG-1, 20 nM salmon sperm DNA (from Invitrogen, UfraPure™ Salmon Sperm DNA Solution, cat #15632011), and 400 μM of ATP in the ATPase assay buffer, which comprises of 20 mM Tris, pH 8, 20 mM MgCl2, 50 mM NaCl, 0.1% Tween-20, and 1 mM fresh DTT (Piercer™ DTT (Dithiothreitol), cat #20290). The reaction is initiated by the addition of the 2.5 μL ATPase solution to 2.5 μL ATP/DNA solution on low volume white Proxiplate-384 plus plate (PerkinElmer, cat #6008280) and incubates at room temperature for 1 hour. Then, following addition of 5 μL of ADP-Glo™ Reagent provided in the kit, the reaction incubates at room temperature for 40 minutes. Then, 10 μL of Kinase Detection Reagent provided in the kit is added to convert ADP to ATP, and the reaction incubates at room temperature for 60 minutes. Finally, luminescence measurement is collected with a plate-reading luminometer, such as Envision.
A general note: ADP-Glo turns the ADP formed in a reaction into a luminescent signal.

For experiment [2], the target named is T2, BRG-1 (Homo sapiens, UniProt P51532).
T2 construct: made in house; host or cells: High Five insect cells
T2 sequence (P51532 whole entry): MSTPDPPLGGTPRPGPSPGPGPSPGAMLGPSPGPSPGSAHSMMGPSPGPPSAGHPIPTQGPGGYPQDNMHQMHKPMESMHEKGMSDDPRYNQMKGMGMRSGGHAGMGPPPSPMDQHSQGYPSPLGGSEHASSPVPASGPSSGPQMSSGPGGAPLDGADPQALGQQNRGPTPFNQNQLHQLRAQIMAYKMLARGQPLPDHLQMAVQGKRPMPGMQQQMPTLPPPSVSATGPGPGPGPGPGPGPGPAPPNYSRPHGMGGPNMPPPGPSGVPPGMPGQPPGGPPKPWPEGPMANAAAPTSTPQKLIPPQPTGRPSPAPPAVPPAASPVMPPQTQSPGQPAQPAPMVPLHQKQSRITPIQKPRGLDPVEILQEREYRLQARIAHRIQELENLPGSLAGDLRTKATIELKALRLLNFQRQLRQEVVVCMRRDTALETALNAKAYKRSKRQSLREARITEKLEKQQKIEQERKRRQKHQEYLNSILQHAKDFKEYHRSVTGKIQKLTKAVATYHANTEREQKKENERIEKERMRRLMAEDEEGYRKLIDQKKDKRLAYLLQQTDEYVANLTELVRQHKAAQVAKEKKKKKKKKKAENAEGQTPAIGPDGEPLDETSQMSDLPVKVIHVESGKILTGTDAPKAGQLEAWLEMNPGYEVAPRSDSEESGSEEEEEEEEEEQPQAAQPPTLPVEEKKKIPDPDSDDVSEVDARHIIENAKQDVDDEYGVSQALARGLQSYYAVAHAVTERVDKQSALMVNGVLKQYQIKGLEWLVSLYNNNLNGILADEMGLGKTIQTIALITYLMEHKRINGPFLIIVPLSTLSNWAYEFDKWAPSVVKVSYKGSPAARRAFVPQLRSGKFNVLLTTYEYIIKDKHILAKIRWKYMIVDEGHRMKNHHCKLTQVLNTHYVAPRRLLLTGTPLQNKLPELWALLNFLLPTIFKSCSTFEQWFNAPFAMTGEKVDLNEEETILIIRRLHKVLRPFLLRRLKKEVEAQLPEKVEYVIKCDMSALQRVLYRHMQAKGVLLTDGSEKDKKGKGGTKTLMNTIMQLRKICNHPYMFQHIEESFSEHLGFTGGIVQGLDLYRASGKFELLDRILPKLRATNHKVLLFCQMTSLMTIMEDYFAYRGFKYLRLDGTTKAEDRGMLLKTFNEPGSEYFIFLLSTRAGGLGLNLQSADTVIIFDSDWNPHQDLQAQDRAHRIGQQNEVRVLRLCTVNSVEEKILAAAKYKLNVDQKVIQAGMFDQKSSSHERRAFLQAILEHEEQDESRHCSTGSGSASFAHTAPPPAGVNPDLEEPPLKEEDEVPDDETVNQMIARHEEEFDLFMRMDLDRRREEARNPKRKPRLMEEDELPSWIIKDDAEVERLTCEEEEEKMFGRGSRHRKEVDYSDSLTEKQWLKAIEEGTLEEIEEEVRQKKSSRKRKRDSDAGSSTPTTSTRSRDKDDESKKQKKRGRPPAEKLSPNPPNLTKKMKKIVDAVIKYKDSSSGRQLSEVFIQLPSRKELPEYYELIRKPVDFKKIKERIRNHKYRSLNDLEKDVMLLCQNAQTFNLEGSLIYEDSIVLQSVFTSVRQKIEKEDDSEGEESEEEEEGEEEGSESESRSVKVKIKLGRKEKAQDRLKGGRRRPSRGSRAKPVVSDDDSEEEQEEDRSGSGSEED
As to the kind of experiment: ATPase catalytic activity of BRG-1, ADP-Glo in vitro biochemical assay. Particulars: 30 nM BRG-1, 400 μM ATP, read-out: BRG1 IC50. As to the method:
as §1
Then, following addition of 5 μL of ADP-Glo™ Reagent provided in the kit, the reaction incubates at room temperature for 40 minutes. Then, 10 μL of Kinase Detection Reagent provided in the kit is added to convert ADP to ATP, and the reaction incubates at room temperature for 60 minutes. Finally, luminescence measurement is collected with a plate-reading luminometer, such as Envision.

Where [3] appears, read: ATPase catalytic activity, ADP-Glo.

Where two headings read alike, the source gives them in different places.

T1 sequence (P51531 whole entry): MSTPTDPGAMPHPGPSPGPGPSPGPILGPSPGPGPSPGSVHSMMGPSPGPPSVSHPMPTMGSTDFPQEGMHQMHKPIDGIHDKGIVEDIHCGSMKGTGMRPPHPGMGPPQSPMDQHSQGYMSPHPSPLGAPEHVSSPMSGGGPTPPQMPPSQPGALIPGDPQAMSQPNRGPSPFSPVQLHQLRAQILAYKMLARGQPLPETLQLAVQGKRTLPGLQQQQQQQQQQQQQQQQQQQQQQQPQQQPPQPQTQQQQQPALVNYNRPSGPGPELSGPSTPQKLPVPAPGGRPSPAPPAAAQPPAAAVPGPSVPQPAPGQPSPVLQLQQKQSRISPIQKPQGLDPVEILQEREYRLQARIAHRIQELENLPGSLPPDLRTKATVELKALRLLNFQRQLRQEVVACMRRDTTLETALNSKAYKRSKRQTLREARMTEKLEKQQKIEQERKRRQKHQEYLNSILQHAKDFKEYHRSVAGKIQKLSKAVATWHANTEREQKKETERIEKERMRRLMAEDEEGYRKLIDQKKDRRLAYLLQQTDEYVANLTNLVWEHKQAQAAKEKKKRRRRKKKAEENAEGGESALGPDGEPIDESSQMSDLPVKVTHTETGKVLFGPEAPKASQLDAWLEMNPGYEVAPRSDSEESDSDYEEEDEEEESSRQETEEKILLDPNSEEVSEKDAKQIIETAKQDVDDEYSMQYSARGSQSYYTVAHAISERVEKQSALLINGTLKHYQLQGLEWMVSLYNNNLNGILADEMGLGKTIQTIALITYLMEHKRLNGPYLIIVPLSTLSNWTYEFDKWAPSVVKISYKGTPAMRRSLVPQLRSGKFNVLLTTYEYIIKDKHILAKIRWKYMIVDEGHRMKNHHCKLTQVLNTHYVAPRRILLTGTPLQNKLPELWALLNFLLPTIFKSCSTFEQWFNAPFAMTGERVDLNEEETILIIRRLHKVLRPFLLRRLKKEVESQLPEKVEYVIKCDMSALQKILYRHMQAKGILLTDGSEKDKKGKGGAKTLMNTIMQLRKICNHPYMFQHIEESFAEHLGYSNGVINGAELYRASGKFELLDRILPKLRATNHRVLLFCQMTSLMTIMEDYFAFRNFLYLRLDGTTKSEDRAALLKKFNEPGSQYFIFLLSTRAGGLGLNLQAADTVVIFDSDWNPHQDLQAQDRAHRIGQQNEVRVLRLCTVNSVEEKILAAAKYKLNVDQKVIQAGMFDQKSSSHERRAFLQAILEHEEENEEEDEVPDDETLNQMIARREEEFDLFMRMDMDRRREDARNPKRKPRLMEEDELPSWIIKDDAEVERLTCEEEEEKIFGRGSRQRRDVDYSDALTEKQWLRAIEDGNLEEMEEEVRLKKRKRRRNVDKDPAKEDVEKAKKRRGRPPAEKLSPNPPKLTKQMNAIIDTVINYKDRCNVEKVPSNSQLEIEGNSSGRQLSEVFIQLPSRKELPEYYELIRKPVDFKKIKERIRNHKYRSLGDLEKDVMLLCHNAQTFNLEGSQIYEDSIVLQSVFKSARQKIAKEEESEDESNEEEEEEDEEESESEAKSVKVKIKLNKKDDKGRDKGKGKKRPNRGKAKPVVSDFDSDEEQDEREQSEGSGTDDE

Turning to `Cn1cnc2c1CCCN2c1ccc2cnc(CNC(=O)c3ccc4c(c3)S(=O)(=O)CCOC4)cc2n1` [Compound 688], the IC50 in experiment [1] (setting [3]) turned out to be 257 nM; in experiment [2] (setting [3]) it was 1710 nM. Moreover, the “Ratio*” value in experiment [1] (ratio of BRG1 IC50 to BRM IC50) was 6.65.
For `COC[C@@H]1COc2c(-c3ccc4cnc(CNC(=O)c5ccc6c(c5)S(=O)(=O)CCOC6)cc4n3)cccc2N1C` [Compound 639], in that order: 102 nM, 780 nM and 7.66.
Regarding `C[C@@H]1CN(c2cccc(-c3cnc4cnc(CNC(=O)c5ccc(C(F)F)c(S(C)(=O)=O)c5)cc4n3)n2)C[C@H](C)O1` [Compound 56], the IC50 was determined as 13.6 nM in experiment [1] (ADP-Glo ATPase assay) and 240 nM in experiment [2] (ADP-Glo ATPase assay). For the same molecule, the “Ratio* (BRG1 IC50 (μM) divided by BRM IC50 (μM))” value in experiment [1] worked out at 17.62.
Turning to `CC[C@@H]1CCS(=O)(=O)c2cc(C(=O)NCc3cc4nc(-c5cccc(N6C[C@@H](C)O[C@@H](C)C6)n5)ccc4cn3)ccc2O1` [Compound 580], the IC50 in experiment [1] (setting [3]) was found to be 106 nM; in experiment [2] (setting [3]), 1760 nM. In addition, the “Ratio*” value in experiment [1] (ratio of BRG1 IC50 to BRM IC50) was found to be 16.67.
For `C[C@@H]1CN(c2cccc(-c3ccc4cnc(CNC(=O)c5ccc6c(c5)S(=O)(=O)[C@@H](C)COC6)cc4n3)c2F)C[C@H](C)O1` [Compound 609], in that order: 39.2 nM, 1110 nM and 28.40.
In the case of `COC[C@H](C)Oc1ccc2c(c1)N(c1ccc3cnc(CNC(=O)c4ccc5c(c4)S(=O)(=O)CCOC5)cc3n1)CCC2` [Compound 697], the IC50 in experiment [1] (setting [3]) was 4.9 nM; in experiment [2] (setting [3]), 37.9 nM. The “Ratio*” value in experiment [1] (ratio of BRG1 IC50 to BRM IC50) is 7.66.
`COc1ccc2c(c1F)N(c1ccc3cnc(CNC(=O)c4ccc5c(c4)S(=O)(=O)CCOC5)cc3n1)CCO2` [Compound 774]: the IC50 in experiment [1] (ADP-Glo ATPase assay) was 12 nM; in experiment [2] (ADP-Glo ATPase assay), 174 nM. Moreover, the “Ratio*” value in experiment [1] (ratio BRG1 IC50 / BRM IC50) is given as 14.44.
`O=C(NCc1cc2nc(N3CCCc4cc(C5CC5)cnc43)ccc2cn1)c1ccc2c(c1)S(=O)(=O)CCOC2` [Compound 394]: the IC50 in experiment [1] (setting [3]) was found to be 5.8 nM; in experiment [2] (setting [3]), 87.9 nM. Also, the “Ratio*” value in experiment [1] (ratio of BRG1 IC50 to BRM IC50) is listed as 15.21.
As for `O=C(NCc1cc2nc(-c3cccc(OC(F)(F)F)n3)ccc2cn1)c1ccc2c(c1)S(=O)(=O)CCOC2` [Compound 237], the values for the IC50 in experiment [1] (ADP-Glo ATPase assay) and in experiment [2] (ADP-Glo ATPase assay) were 22.7 nM and 468 nM, respectively. Moreover, in experiment [1], the “Ratio* (BRG1 IC50 (μM) divided by BRM IC50 (μM))” value was determined as 20.63.
`COc1cc2c(cn1)N(c1ccc3cnc(CNC(=O)c4ccc5c(c4)S(=O)(=O)CCOC5)cc3n1)CCC2` [Compound 719]: the IC50 in experiment [1] (ADP-Glo ATPase assay) amounted to 42.6 nM; in experiment [2] (ADP-Glo ATPase assay), 580 nM. Moreover, the “Ratio*” value in experiment [1] (ratio BRG1 IC50 / BRM IC50) turned out to be 13.62.
In the case of `C[C@@H]1CN(c2cccc(-c3ccc4cnc(CNC(=O)c5cc(Cl)c6c(c5)S(=O)(=O)CC[C@H](C)O6)cc4n3)n2)C[C@H](C)O1` [Compound 506], the IC50 turned out to be 49.2 nM in experiment [1] (setting [3]) and 645 nM in experiment [2] (setting [3]). In addition, the “Ratio*” value in experiment [1] (ratio of BRG1 IC50 to BRM IC50) was 13.12.
As for `COCc1c(Cl)cc(C(=O)NCc2cc3nc(-c4cccc(N5C[C@@H](C)O[C@@H](C)C5)n4)ccc3cn2)cc1S(C)(=O)=O` [Compound 114], the values for the IC50 in experiment [1] (ADP-Glo ATPase assay) and in experiment [2] (ADP-Glo ATPase assay) were 70.8 nM and 1610 nM, respectively. Besides, in experiment [1], the “Ratio* (BRG1 IC50 (μM) divided by BRM IC50 (μM))” value is 22.76.
On to `C[C@@H]1CN(c2cccc(-c3ccc4cnc(CNC(=O)c5ccc6c(c5)S(=O)(=O)[C@@H](C)CN6C5CC5)cc4n3)n2)C[C@H](C)O1` [Compound 667], for which the IC50 in experiment [1] (setting [3]) was 39 nM; in experiment [2] (setting [3]), 517 nM. The “Ratio*” value in experiment [1] (ratio of BRG1 IC50 to BRM IC50) was 13.24.
Take `O=C(NCc1cc2nc(-c3ccccc3OC3CC3)ccc2cn1)c1ccc2c(c1)S(=O)(=O)CCOC2` [Compound 232]: the IC50 was 58.5 nM in experiment [1] (ADP-Glo ATPase assay) and 410 nM in experiment [2] (ADP-Glo ATPase assay). The “Ratio* (BRG1 IC50 (μM) divided by BRM IC50 (μM))” value in experiment [1] is on record as 7.00.
Take `CO[C@@H]1CCN(c2cccc(-c3ccc4cnc(CNC(=O)c5ccc6c(c5)S(=O)(=O)CCOC6)cc4n3)n2)C[C@H]1C` [Compound 353]: the IC50 in experiment [1] (setting [3]) was 9.5 nM; in experiment [2] (setting [3]), 125 nM. Moreover, the “Ratio*” value in experiment [1] (ratio of BRG1 IC50 to BRM IC50) was determined as 13.13.
The matching figures for `COC[C@H](NC(=O)c1ccc2c(c1)S(=O)(=O)CCOC2)c1cc2nc(-c3cccc(C4CC4)n3)ccc2cn1` [Compound 507]: 387 nM, 2430 nM and 6.28.
Turning to `Cn1nccc1-c1cccc(-c2ccc3cnc(CNC(=O)c4ccc5c(c4)S(=O)(=O)CCOC5)cc3n2)c1` [Compound 235], the IC50 was found to be 154 nM in experiment [1] (ADP-Glo ATPase assay) and 1130 nM in experiment [2] (ADP-Glo ATPase assay). Also, the “Ratio* (BRG1 IC50 (μM) divided by BRM IC50 (μM))” value in experiment [1] is on record as 7.32.
For the molecule `O=C(NCc1cc2nc(N3CCN(C4CC4)c4cccnc43)ccc2cn1)c1ccc2c(c1)S(=O)(=O)CCOC2` [Compound 686], the IC50 in experiment [1] (setting [3]) amounted to 14.3 nM; in experiment [2] (setting [3]) it was 199 nM. Also, the “Ratio*” value in experiment [1] (ratio of BRG1 IC50 to BRM IC50) is reported as 13.91.
`COCCN(c1cccc(C2CC2)n1)c1ccc2cnc(CNC(=O)c3ccc4c(c3)S(=O)(=O)CCOC4)cc2n1` [Compound 840] displayed an IC50 in experiment [1] (ADP-Glo ATPase assay) of 4000 nM. Also, the “Ratio*” value in experiment [1] (ratio BRG1 IC50 / BRM IC50) was determined as 1.25.
Regarding `C[C@@H]1COCc2ncc(C(=O)NCc3cc4nc(-c5cccc(C6CC6)n5)ccc4cn3)cc2S1(=O)=O` [Compound 455], the “Ratio*” value in experiment [1] (ratio of BRG1 IC50 to BRM IC50) is on record as 1.00.
In experiment [1] (setting [3]), `C[C@@H]1CN(c2cccc(-c3ccc4cnc(CNC(=O)c5cc(Cl)c6c(c5)S(=O)(=O)[C@H](C)COC6)cc4n3)n2)C[C@H](C)O1` [Compound 432] came in with an IC50 of 1500 nM. In addition, the “Ratio*” value in experiment [1] (ratio of BRG1 IC50 to BRM IC50) is given as 3.34.
The matching figures for `Cc1cc(C(=O)NCc2cc3nc(-c4cccc(N5C[C@@H](C)O[C@@H](C)C5)n4)ccc3cn2)cc2c1OCC[C@@H](C)S2(=O)=O` [Compound 461]: 1590 nM and 3.15.
`CC1CN(c2cccc(-c3ccc4cnc(CNC(=O)c5cnc6c(c5)S(=O)(=O)CCC5CC65)cc4n3)n2)CC(C)O1` (stereo not drawn) [Compound 577]: the “Ratio*” value in experiment [1] (ratio of BRG1 IC50 to BRM IC50) was determined as 3.78.
For `C[C@@H]1CN(c2cccc(-c3ccc4cnc(CNC(=O)c5cnc6c(c5)S(=O)(=O)[C@H](C)CC6)cc4n3)n2)C[C@H](C)O1` [Compound 596], half-maximal inhibition in experiment [1] (setting [3]) (IC50) required 681 nM. Further, the “Ratio*” value in experiment [1] (ratio of BRG1 IC50 to BRM IC50) was 7.34.
With `O=C(NCc1cc2nc(N3CCCc4ccc(C(F)F)nc43)ccc2cn1)c1ccc2c(c1)S(=O)(=O)CCOC2` [Compound 571], in experiment [1] (ratio of BRG1 IC50 to BRM IC50), the “Ratio*” value is on record as 6.87.
Take `O=C(NCc1cc2nc(-c3cccc4c3CN(C3CC3)CC4)ccc2cn1)c1ccc2c(c1)S(=O)(=O)CCOC2` [Compound 685]: the IC50 in experiment [1] (setting [3]) amounted to 715 nM. The “Ratio*” value in experiment [1] (ratio of BRG1 IC50 to BRM IC50) is on record as 6.99.
In the case of `C[C@@H]1CN(c2cccc(-c3ccc4cnc(CNC(=O)c5ccc6c(c5)S(=O)(=O)[C@H](C)CN6C)cc4n3)n2)C[C@H](C)O1` [Compound 560], the IC50 in experiment [1] (setting [3]) turned out to be 498 nM. Further, in experiment [1] (ratio of BRG1 IC50 to BRM IC50), the “Ratio*” value is given as 10.04.
The matching figures for `C[C@@H]1CN(c2cccc(-c3ccc4cnc(CNC(=O)c5cc(Cl)c6c(c5)S(=O)(=O)CCO[C@H]6C)cc4n3)n2)C[C@H](C)O1` [Compound 547]: 293 nM and 17.08.
Molecule `C[C@@H]1CN(c2cccc(-c3ccc4cnc(CNC(=O)c5ccc6c(c5)S(=O)(=O)[C@H](C)CO[C@H]6C)cc4n3)n2)C[C@H](C)O1` [Compound 518] returned an IC50 in experiment [1] (setting [3]) of 4560 nM. Also, the “Ratio*” value in experiment [1] (ratio of BRG1 IC50 to BRM IC50) was 1.10.
The molecule `CC1Cc2cccnc2N(c2ccc3cnc(CNC(=O)c4ccc5c(c4)S(=O)(=O)CCOC5)cc3n2)C1` (stereo not drawn) [Compound 556] displayed an IC50 in experiment [1] (setting [3]) of 1700 nM. In experiment [1] (ratio of BRG1 IC50 to BRM IC50), the “Ratio*” value came to 2.94.
